Measurements: US20200397796A1, “METHODS OF TREATMENT OF CANCER COMPRISING CHK1 INHIBITORS” (SIERRA ONCOLOGY, INC., priority 2018, published 2020)

Tests used:
minipig hepatocytes = test: Stability in cryopreserved hepatocytes, minipig; type: in vitro ADME; conditions: 10 μM, after 4 hours of incubation
Procedure: The formation of SRA737-related metabolites was determined in cryopreserved hepatocytes from human, mouse, rat, dog, minipig and monkey samples after incubation with SRA737 at a nominal concentration of 10 μM for up to 4 hours. […] In the human hepatocyte preparation, approximately 67% of the parent remained after 4 hours of incubation compared to 75% and 7% in the rat and minipig preparations, respectively. Eight human SRA737 metabolites were observed. All SRA737 metabolites formed by human hepatocytes were also formed by monkey hepatocytes. Six metabolites were present at equal or greater abundance in the monkey.

[1] = Plasma protein binding, ultracentrifugation, human; type: in vitro ADME; conditions: for Percentage Bound / Percentage Free: Human plasma
Procedure: (§1) The PK of SRA737 have been determined in the mouse, rat, dog and monkey following oral and IV administration (Table 3). […] An acceptable terminal elimination t1/2 was also observed in each species. […] The plasma protein binding of SRA737 at 1 and 10 μM was examined in mouse, minipig, monkey and human plasma using ultracentrifugation and in dog plasma (10 μM) using rapid equilibrium dialysis.

[2] = system: CHK1 S296 autophosphorylation; test: Gemcitabine induced CHK1 S296 autophosphorylation in HT29 tumor xenografts (western blotting); type: in vivo, mouse; conditions: oral, 24 hours following gemcitabine 100 mg/kg IV
Procedure: The effect of SRA737 on Gemcitabine induced CHK1 S296 autophosphorylation was assessed as described in Walton et al. (Oncotarget. 2016 Jan. 19; 7(3): 2329-2342), herein incorporated by reference for all it teaches. Briefly, mice bearing HT29 tumor xenografts were administered (i) vehicle control or (ii) gemcitabine (100 mg/kg in saline, IV) or (iii) a combination of SRA737 (12.5, 25, 50 or 100 mg/kg in DTPW, oral) and gemcitabine (100 mg/kg) with SRA737 administered 24 hours following gemcitabine administration (n=3 per time point per treatment). […] Exposure in the tumor was greater than 10-fold higher than in plasma. The circulating plasma concentration at this 24-hour timepoint corresponded to a free drug concentration of approximately 6 nM (2 ng/mL) based on plasma protein binding in mice of 94%.

[3] = Plasma protein binding, ultracentrifugation, monkey; type: in vitro ADME; conditions: for Percentage Bound / Percentage Free: Monkey plasma
Procedure: as §1

Single dose PK, mouse = type: in vivo
Procedure: as §1

[4] = GLP 28-day repeat oral dose toxicity and toxicokinetics, monkey; type: in vivo; conditions: for AUC(0-t) / Cmax / half-life: po, daily dosing for 28 days
Excerpt: Reference source not found.6.

[5] = system: HGSOC PDX models harboring CCNE1 amplifications accompanied by TP53 mutations; test: In vivo efficacy, HGSOC PDX models with CCNE1 amplifications; parameters: species or system mouse; conditions: single agent; several models; data not shown
Procedure: (§2) A program of in vivo efficacy studies was performed to assess the activity of SRA737 in combination with genotoxic chemotherapy and targeted agents, and as monotherapy.
(§3) One of these models also carried a MYCN amplification. A fourth HGSOC PDX model with partial resistance to PARPi was also sensitive to high dose SRA737 monotherapy.

CYP1A2 = CYP1A2 induction in vitro; type: in vitro ADME; conditions: positive control omeprazole, concentration dependent
[6] = Plasma protein binding, ultracentrifugation, mouse; type: in vitro ADME; conditions: for Percentage Bound / Percentage Free: Mouse plasma
Procedure: as §1

mTmG = test: In vivo efficacy, mTmG syngeneic mouse model; conditions: in combination with a PD1/PD-L1 inhibitor; data not shown
Procedure: as §2, §3

SW620 mouse colon cancer = test: In vivo efficacy, SW620 xenograft model; conditions: in combination with standard-dose gemcitabine; data not shown
Procedure: as §2, §3

[7] = in vivo, Mouse IV 10 mg/kg single dose
[8] = in vivo, Mouse oral 10 mg/kg single dose
[9] = in vivo, Monkey Female, 2 mg/kg/day
[10] = in vivo, Monkey Female, 10 mg/kg/day
[11] = in vivo, Monkey Female, 20 mg/kg/day (NOAEL)
[12] = in vivo, Monkey Male, 2 mg/kg/day
[13] = in vivo, Monkey Male, 10 mg/kg/day
[14] = in vivo, Monkey Male, 20 mg/kg/day (NOAEL)

In the case of `N#Cc1cnc(Nc2cc(NCC3CNCCO3)c(C(F)(F)F)cn2)cn1` (centres unmarked) [SRA737, 5-[[4-[[morpholin-2-yl]methylamino]-5-(trifluoromethyl)-2-pyridyl]amino]pyrazine-2-carbonitrile], the parent remained (minipig hepatocytes) is reported as 7%, the “Percentage Bound” value ([1]; 1 μM) is reported as 87.7% and the “Percentage Free” value ([1]; 1 μM) is reported as 12.4%. For the same compound, the “Percentage Bound” value ([1]; 10 μM) was 87.2%, the “Percentage Free” value ([1]; 10 μM) was 12.8% and the fraction unbound ([1]; human, plasma, humans, summary of 1 and 10 μM) was ~0.13. For the same compound, the “SRA737 doses at which inhibition of pS296 Chk1 was observed” value [2] was “greater than or equal to 12.5 mg/kg”, the “Percentage Bound” value ([3]; 1 μM) was 88.8% and the “Percentage Free” value ([3]; 1 μM) was 11.2%. For the same compound, the “Percentage Bound” value ([3]; 10 μM) was 85.8%, the “Percentage Free” value ([3]; 10 μM) was 14.2% and the fraction unbound ([3]; plasma, monkey, summary of 1 and 10 μM) was 0.13. For the same compound, the Foral (Single dose PK, mouse; Mouse oral 10 mg/kg single dose) was 105%, the AUC(0-t) (Single dose PK, mouse; [7]) was 3770 ng·h/mL and the half-life (Single dose PK, mouse; [7]) was 2.9 h. It also gave an AUC(0-t) (Single dose PK, mouse; [8]) of 3940 ng·h/mL, a Cmax (Single dose PK, mouse; [8]) of 610 ng/mL and a Tmax (Single dose PK, mouse; [8]) of 1 h. For the same compound, the half-life (Single dose PK, mouse; [8]) was 2.8 h, the AUC(0-t) [4, 9] was 2580 ng·h/mL and the Cmax [4, 9] was 519 ng/mL. The half-life [4, 9] was 8.74 h, the AUC(0-t) [4, 10] was 12900 ng·h/mL and the Cmax [4, 10] was 1870 ng/mL. It also gave a half-life [4, 10] of 6.58 h, an AUC(0-t) [4, 11] of 24200 ng·h/mL and a Cmax [4, 11] of 2320 ng/mL. It also gave a half-life [4, 11] of 6 h, an AUC(0-t) [4, 12] of 3240 ng·h/mL and a Cmax [4, 12] of 365 ng/mL. It also gave a half-life [4, 12] of 6.73 h, an AUC(0-t) [4, 13] of 17900 ng·h/mL and a Cmax [4, 13] of 2070 ng/mL. The half-life [4, 13] was 8.34 h, the AUC(0-t) [4, 14] was 20700 ng·h/mL and the Cmax [4, 14] was 3170 ng/mL. The half-life [4, 14] was 6.84 h, the NOAEL at 28 days ([4]; in vivo, monkey, 28-day repeat oral dose, highest dose tested) was 20 mg/kg/day and the NOAEL ([4]; monkey, 28-day repeat oral dose, highest dose tested) was 240 mg/m^2/day. The toxicological findings ([4]; pivotal monkey toxicity study) was “absence of toxicological findings”, the antitumor activity [5] was “Significant antitumor activity” and the “induction of CYP1A2” value (CYP1A2) was < 10 % positive control. For the same compound, the “Percentage Bound” value ([6]; 1 μM) was 94.5%, the “Percentage Free” value ([6]; 1 μM) was 5.5% and the “Percentage Bound” value ([6]; 10 μM) was 93.4%. For the same compound, the “Percentage Free” value ([6]; 10 μM) was 6.6%, the fraction unbound ([6]; mouse, plasma, summary of 1 and 10 μM) was 0.06 and the plasma protein binding ([6]; mouse, summary of 1 and 10 μM) was ~94%. For the same compound, the antitumor activity (mTmG) was “Significant antitumor activity” and the antitumor activity (SW620 mouse colon cancer) was “Significant, dose-dependent antitumor activity”.
